Laboratory results published in patent publication US20150275254A1, “ENZYME LOADING, CELLULOSE HYDROLYSIS, AND INHIBITION OF CELLOBIOHYDROLASES USING LIQUID HOT WATER PRETREATMENT” (PURDUE RESEARCH FOUNDATION, priority 2014, published 2015).

Assays:
Cellic Ctec2 = experiment: Enzymatic hydrolysis of LHW pretreated hardwood (severity log Ro=12.51) at different hydrolysis conditions (FIG. 6); format: biochemical, Trichoderma reesei; settings: 200 mM NaCl at pH 4.8; 5 FPU (8 mg) Ctec2/g glucan, 72 hrs
Description: In this work, the lignocellulosic substrate was enzymatically hydrolyzed in order to study how the non-productive adsorption affected the enzymatic hydrolysis efficiency. The glucose yield of LHW pretreated hardwood containing 57.9% glucan and 40.3% lignin was measured for a low enzyme loading amount of 5 FPU (8 mg) Ctec2/g glucan at given conditions (FIG. 6). […] This might be due to the decreased cellulase activity at pH 5.5 as shown in microcrystalline cellulose (Avicel) hydrolysis. The overall decrease in T. reesei cellulase cocktail (Ctec2) adsorption onto lignins at elevated pHs was in agreement with the results by Lou et al. (2013). The reduced nonproductive adsorption led to the enhanced glucose yield more than twofold when the dilute acid or sulfite pretreated softwood was hydrolyzed with higher amount (10 FPU/g glucan) of cellulase (Lou et al., 2013).

[1] = target: T1, β-glucosidase from A. niger (Aspergillus niger, UniProt A2RAL4); settings: cited from earlier work
T1 sequence (A2RAL4 20-860): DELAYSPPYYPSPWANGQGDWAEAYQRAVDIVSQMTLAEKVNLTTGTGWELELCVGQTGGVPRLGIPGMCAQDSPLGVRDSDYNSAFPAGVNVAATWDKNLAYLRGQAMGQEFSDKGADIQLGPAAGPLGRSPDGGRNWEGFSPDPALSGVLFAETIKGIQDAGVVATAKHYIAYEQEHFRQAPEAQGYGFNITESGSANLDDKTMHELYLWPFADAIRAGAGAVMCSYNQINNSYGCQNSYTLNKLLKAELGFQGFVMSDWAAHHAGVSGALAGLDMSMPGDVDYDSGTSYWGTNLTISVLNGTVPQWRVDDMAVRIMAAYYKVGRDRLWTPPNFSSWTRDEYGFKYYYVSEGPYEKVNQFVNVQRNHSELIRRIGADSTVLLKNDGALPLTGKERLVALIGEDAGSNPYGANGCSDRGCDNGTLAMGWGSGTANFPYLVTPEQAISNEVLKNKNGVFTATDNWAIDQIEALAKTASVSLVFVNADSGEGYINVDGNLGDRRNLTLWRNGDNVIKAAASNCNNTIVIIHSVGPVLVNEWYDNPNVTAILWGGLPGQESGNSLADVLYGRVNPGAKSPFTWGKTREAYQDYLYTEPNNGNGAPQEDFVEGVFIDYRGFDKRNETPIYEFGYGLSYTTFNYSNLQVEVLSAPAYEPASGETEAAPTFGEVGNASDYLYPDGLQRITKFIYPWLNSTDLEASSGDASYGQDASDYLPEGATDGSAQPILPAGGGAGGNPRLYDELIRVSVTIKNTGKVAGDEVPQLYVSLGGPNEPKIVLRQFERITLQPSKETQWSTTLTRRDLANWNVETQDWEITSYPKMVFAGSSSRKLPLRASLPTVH

[2] = target: β-glucosidase from T. reesei; settings: cited from earlier work
[3] = adapted from literature; cited from earlier work

## [Cl-].[Na+] [NaCl]
Cellic Ctec2
  effect on glucose yield: did not affect the glucose yield

## O=C(O)c1cc(O)c(O)c(O)c1 [gallic acid]
[1]
  k, deactivation rate constant: 0.006 h⁻¹
[2]
  k, deactivation rate constant: 0.046 h⁻¹

## O=C(OC[C@H]1O[C@@H](OC(=O)c2cc(O)c(O)c(OC(=O)c3cc(O)c(O)c(O)c3)c2)[C@H](OC(=O)c2cc(O)c(O)c(OC(=O)c3cc(O)c(O)c(O)c3)c2)[C@@H](OC(=O)c2cc(O)c(O)c(OC(=O)c3cc(O)c(O)c(O)c3)c2)[C@@H]1OC(=O)c1cc(O)c(O)c(OC(=O)c2cc(O)c(O)c(O)c2)c1)c1cc(O)c(O)c(OC(=O)c2cc(O)c(O)c(O)c2)c1 [tannic acid]
[1]
  k, deactivation rate constant: 0.045 h⁻¹
[2]
  k, deactivation rate constant: 0.068 h⁻¹

B1: EGI: T. reesei enzyme, gene cel7b, GH7 (protein, UniProt P07981 23-459, looked up)
Endoglucanase EG-1: QQPGTSTPEVHPKLTTYKCTKSGGCVAQDTSVVLDWNYRWMHDANYNSCTVNGGVNTTLCPDEATCGKNCFIEGVDYAASGVTTSGSSLTMNQYMPSSSGGYSSVSPRLYLLDSDGEYVMLKLNGQELSFDVDLSALPCGENGSLYLSQMDENGGANQYNTAGANYGSGYCDAQCPVQTWRNGTLNTSHQGFCCNEMDILEGNSRANALTPHSCTATACDSAGCGFNPYGSGYKSYYGPGDTVDTSKTFTIITQFNTDNGSPSGNLVSITRKYQQNGVDIPSAQPGGDTISSCPSASAYGGLATMGKALSSGMVLVFSIWNDNSQYMNWLDSGNAGPCSSTEGNPSNILANNPNTHVVFSNIRWGDIGSTTNSTAPPPPPASSTTFSTTRRSSTTSSSPSCTQTHWGQCGGIGYSGCKTCTSGTTCQYSNDYYSQCL
[3]
  Experimental pI: (3.9-4.5)

B2: CBHII: T. reesei enzyme, gene cel6a, GH6 (protein, UniProt P07987 25-471, looked up)
Exoglucanase 2: QACSSVWGQCGGQNWSGPTCCASGSTCVYSNDYYSQCLPGAASSSSSTRAASTTSRVSPTTSRSSSATPPPGSTTTRVPPVGSGTATYSGNPFVGVTPWANAYYASEVSSLAIPSLTGAMATAAAAVAKVPSFMWLDTLDKTPLMEQTLADIRTANKNGGNYAGQFVVYDLPDRDCAALASNGEYSIADGGVAKYKNYIDTIRQIVVEYSDIRTLLVIEPDSLANLVTNLGTPKCANAQSAYLECINYAVTQLNLPNVAMYLDAGHAGWLGWPANQDPAAQLFANVYKNASSPRALRGLATNVANYNGWNITSPPSYTQGNAVYNEKLYIHAIGPLLANHGWSNAFFITDQGRSGKQPTGQQQWGDWCNVIGTGFGIRPSANTGDSLLDSFVWVKPGGECDGTSDSSAPRFDSHCALPDALQPAPQAGAWFQAYFVQLLTNANPSFL
[3]
  Experimental pI: (5.2-5.9)

B3: CBHI: T. reesei enzyme, gene cel7a, GH7 (protein, UniProt P62694 18-513, looked up)
Exoglucanase 1: QSACTLQSETHPPLTWQKCSSGGTCTQQTGSVVIDANWRWTHATNSSTNCYDGNTWSSTLCPDNETCAKNCCLDGAAYASTYGVTTSGNSLSIGFVTQSAQKNVGARLYLMASDTTYQEFTLLGNEFSFDVDVSQLPCGLNGALYFVSMDADGGVSKYPTNTAGAKYGTGYCDSQCPRDLKFINGQANVEGWEPSSNNANTGIGGHGSCCSEMDIWEANSISEALTPHPCTTVGQEICEGDGCGGTYSDNRYGGTCDPDGCDWNPYRLGNTSFYGPGSSFTLDTTKKLTVVTQFETSGAINRYYVQNGVTFQQPNAELGSYSGNELNDDYCTAEEAEFGGSSFSDKGGLTQFKKATSGGMVLVMSLWDDYYANMLWLDSTYPTNETSSTPGAVRGSCSTSSGVPAQVESQSPNAKVTFSNIKFGPIGSTGNPSGGNPPGGNRGTTTTRRPATTTGSSPGPTQSHYGQCGGIGYSGPTVCASGTTCQVLNPYYSQCL
[3]
  Experimental pI: (3.6-3.9)

B4: EGII: T. reesei enzyme, gene cel5a, GH5 (protein, UniProt P07982 22-418, looked up)
Endoglucanase EG-II: QQTVWGQCGGIGWSGPTNCAPGSACSTLNPYYAQCIPGATTITTSTRPPSGPTTTTRATSTSSSTPPTSSGVRFAGVNIAGFDFGCTTDGTCVTSKVYPPLKNFTGSNNYPDGIGQMQHFVNEDGMTIFRLPVGWQYLVNNNLGGNLDSTSISKYDQLVQGCLSLGAYCIVDIHNYARWNGGIIGQGGPTNAQFTSLWSQLASKYASQSRVWFGIMNEPHDVNINTWAATVQEVVTAIRNAGATSQFISLPGNDWQSAGAFISDGSAAALSQVTNPDGSTTNLIFDVHKYLDSDNSGTHAECTTNNIDGAFSPLATWLRQNNRQAILTETGGGNVQSCIQDMCQQIQYLNQNSDVYLGYVGWGAGSFDSTYVLTETPTSSGNSWTDTSLVSSCLARK
[3]
  Experimental pI: (4.2-5.5)
